Measured values: patent publication US20180214428A1, “3-(1H-INDOL-2-YL)-1H-PYRAZOLO[3,4-B]PYRIDINES AND THERAPEUTIC USES THEREOF” (Samumed, LLC, priority 2015, published 2018)

How the values were obtained:
[1] = tested on: Wnt activity (Sp5-Luc reporter gene, SW480 colon carcinoma cells); assay: Screening assay for Wnt activity: Sp5-Luc reporter gene assay in SW480 cells; assay type: cell-based, human; conditions: Homo sapiens, overnight incubation
Text: The screening assay for Wnt activity is described as follows. Reporter cell lines can be generated by stably transducing cancer cell lines (e.g., colon cancer) or primary cells (e.g., IEC-6 intestinal cells) with a lentiviral construct that includes a Wnt-responsive promoter driving expression of the firefly luciferase gene.
SW480 colon carcinoma cells were transduced with a lentiviral vector expressing luciferase with a human Sp5 promoter consisting of a sequence of eight TCF/LEF binding sites. SW480 cells stably expressing the Sp5-Luc reporter gene and a hygromycin resistance gene were selected by treatment with 150 μg/mL of hygromycin for 7 days. These stably transduced SW480 cells were expanded in cell culture and used for all further screening activities. Each compound was dissolved in DMSO as a 10 mM stock and used to prepare compound source plates. Serial dilution (1:3, 10-point dose-response curves starting from 10 μM) and compound transfer was performed using the ECHO 550 (Labcyte, Sunnyvale, Calif.) into 384-well white solid bottom assay plates (Greiner Bio-One) with appropriate DMSO backfill for a final DMSO concentration of 0.1%. For Sp5-Luc reporter gene assays, the cells were plated at 4,000 cells/well in 384-well plates with medium containing 1% fetal bovine serum and incubated overnight at 37° C. and 5% CO2. Following incubation, 20 μl of BrightGlo luminescence reagent (Promega) was added to each well of the 384-well assay plates. The plates were placed on an orbital shaker for 2 min and then luminescence was quantified using the Envision (Perkin Elmer) plate reader. Readings were normalized to DMSO only treated cells, and normalized activities were utilized for EC50 calculations using the dose-response log (inhibitor) vs. response variable slope (four parameters) nonlinear regression feature available in GraphPad Prism 5.0 (or Dotmatics). For EC50 of >10 μM, the percent inhibition at 10 μM is provided.

[2] = tested on: SW480 colon cancer cells; assay: Cell viability assay (CellTiter-Blue) in SW480 colon cancer cells; assay type: cell-based, human; conditions: Homo sapiens, 96 h, four days, CellTiter-Blue
Method: Representative compounds were screened using the following assay procedure to assess the effect on cell viability as described below.
Each compound was dissolved in DMSO as a 10 mM stock and used to prepare compound source plates. Serial dilution (1:3, 8-point dose-response curves from 10 μM to 0.0045 μM) and compound transfer was performed using the ECHO 550 (Labcyte, Sunnyvale, Calif.) into 96-well clear bottom, black-walled plates (Corning-Costar).
Approximately 2×10^3 SW480 colon cancer cells were seeded into each well and allowed to incubate in the presence or absence of compound for four days at 37° C./5% CO2. Eight replicates of DMSO-treated cells served as controls and cells treated with compound were performed in duplicate.
After incubation, 20 μL of CellTiter-Blue (Promega) was added to each well allowed to incubate for approximately 3 hours. This reagent was a buffered solution which contains resazurin, metabolically active cells were able to reduce rezarurin (blue) into resorufin (pink) which was highly fluorescent. This measured fluorescence was used as a readout for cell viability.
After incubation, the plates were read at Ex 560 nm Em 590 nm (Cytation 3, BioTek). Dose-response curves were generated and EC50 concentration values were calculated using non-linear regression curve fit in the GraphPad Prism (San Diego, Calif.) or Dotmatics' Studies Software (Bishops Stortford, UK). For EC50 of >10 μM, the percent inhibition at 10 μM is provided.

[3] = tested on: primary human fibroblasts derived from IPF patients (LL29 cells); assay: Inhibition of the fibrotic process: αSMA staining in TGF-β1 treated LL29 fibroblasts; assay type: cell-based; conditions: Homo sapiens, Fibroblast, 96 h, TGF-β1 20 ng/mL, 4 days, % αSMA positive cells
Text: Representative compounds were screened using primary human fibroblasts (derived from IPF patients) treated with TGF-β1 to determine their ability to inhibit the fibrotic process.
Primary human fibroblasts derived from IPF patients (LL29 cells) [^1Xiaoqiu Liu, et. al., “Fibrotic Lung Fibroblasts Show Blunted Inhibition by cAMP Due to Deficient cAMP Response Element-Binding Protein Phosphorylation”, Journal of Pharmacology and Experimental Therapeutics (2005), 315(2), 678-687; ^2Watts, K. L., et. al., “RhoA signaling modulates cyclin D1 expression in human lung fibroblasts; implications for idiopathic pulmonary fibrosis”, Respiratory Research (2006), 7(1), 88] were obtained from American Type Culture Collection (ATCC) and expanded in F12 medium supplemented with 15% Fetal Bovine Serum and Penicillin/Streptomycin.
Each compound was dissolved in DMSO as a 10 mM stock and used to prepare compound source plates. Serial dilution (1:2, 11-point dose-response curves from 10 μM to […]) and compound transfer was performed using the ECHO 550 (Labcyte, Sunnyvale, Calif.) into 384-well clear bottom assay plates (Greiner Bio-One) with appropriate DMSO backfill for a final DMSO concentration of 0.1%. LL29 cells are plated at 1,500 cells/well in 80 μL/well F12 medium supplemented with 1% Fetal Bovine Serum. One hour after addition of the cells, TGF-01 (Peprotech; 20 ng/mL) was added to the plates to induce fibrosis (ref. 1 and 2 above). Wells treated with TGF-β1 and containing DMSO were used as controls. Cells were incubated at 37° C. and 5% CO2 for 4 days. Following incubation for 4 days, SYTOX green nucleic acid stain (Life Technologies [Thermo Fisher Scientific]) was added to the wells at a final concentration of 1 μM and incubated at room temperature for 30 min. Cells were then fixed using 4% formaldehyde (Electron Microscopy Sciences), washed 3 times with PBS followed by blocking and permeabilization using 3% Bovine Serum Albumin (BSA; Sigma) and 0.3% Triton X-100 (Sigma) in PBS. Cells were then stained with antibody specific to α-smooth muscle actin (aSMA; Abcam) (ref. 1 and 2 above) in 3% Bovine Serum Albumin (BSA; Sigma) and 0.3% Triton X-100 (Sigma) in PBS, and incubated overnight at 4° C. Cells were then washed 3 times with PBS, followed by incubation with Alexa Flor-647 conjugated secondary antibody (Life Technologies [Thermo Fisher Scientific]) and DAPI at room temperature for 1 hour. Cells were then washed 3 times with PBS and plates were sealed for imaging. αSMA staining was imaged by excitation at 630 nm and emission at 665 nm and quantified using the Compartmental Analysis program on the CellInsight CX5 (Thermo Scientific). Dead or apoptotic cells were excluded from analysis based on positive SYTOX green staining. % of total cells positive for aSMA were counted in each well and normalized to the average of 11 wells treated with TGF-01 on the same plate using Dotmatics' Studies Software. The normalized averages (fold change over untreated) of 3 replicate wells for each compound concentration were used to create dose-responses curves and EC50 values were calculated using non-linear regression curve fit in the Dotmatics' Studies Software. For EC50 of >10 μM, the percent inhibition at 10 μM is provided.

[4] = tested on: IL-6; assay: IL-6 inhibition in LPS-stimulated THP-1 monocytes (HTRF); assay type: cell-based, human; conditions: Homo sapiens; THP-1 cells, 500 ng/mL LPS, 22 h, HTRF IL-6 readout; 10-point dose-response from 10 μM
Method: Human monocyte cell line (THP-1 cells; Catalog # TIB-202, ATCC, Manassas, Va.) were cultured in Roswell Park Memorial Institute (RPMI) 1640 Medium (Catalog #21870-100, Buffalo, N.Y.) with 1% L-glutamine, 1% HEPES, 1% Sodium Pyruvate, 2% Sodium Bicarbonate supplemented with 100 units/mL penicillin, 50 μg/mL streptomycin, 2-mercaptoethanol (0.05 mM) [basal medium] and 10% fetal bovine serum (Catalog #16140089, Life Technologies, Carlsbad, Calif.) at 37° C. and 5% CO2.
THP-1 cells were cultured in basal media with 1% FBS for 24 hours before the start of the assay. Each compound was dissolved in DMSO as a 10 mM stock and used to prepare compound source plates. Serial dilution (1:3, 10-point dose-response curves starting from 10 μM) and compound transfer was performed using the ECHO 550 (Labcyte, Sunnyvale, Calif.) into 384-well white low volume assay plates (Greiner Bio-One) with appropriate DMSO backfill for a final DMSO concentration of 0.1%. THP-1 cells were plated at 5000 cells/well in the 384-well plates and incubated at 37° C. for 2 h. 500 ng/mL of LPS was added after 2 hours and cells were incubated for another 22 hours at 37° C. Plates were spun in a centrifuge for 1 minute at […] and a mixture of anti-IL6 XL665, and anti-IL6 Cryptate diluted in reconstitution buffer (Cisbio Inc.) was added to each well. Following incubation for 3 hrs at room temperature, Homogeneous Time-Resolved Fluorescence (HTRF) was measured using the Envision (Perkin Elmer) at 665 nm and […]. The ratio of fluorescence at 665 nm to 620 nm was used as a readout for IL6 quantification. All samples were processed in duplicate. Readings were normalized to DMSO treated cells and normalized activities were utilized for EC50 calculations using the dose-response log (inhibitor) vs. response variable slope (four parameters) nonlinear regression feature available in GraphPad Prism 5.0 (or Dotmatics). For EC50 of >10 μM, the percent inhibition at 10 μM is provided.

Row | Structure (SMILES) | EC50 [1] [µM] | EC50 [2] [µM] | EC50 [4] [µM] | EC50 [3] [µM]
1 | CN(C)Cc1cncc(-c2cnc3[nH]nc(-c4cc5c(N6CCCCC6)cccc5[nH]4)c3c2)c1 [Compound 157, N,N-Dimethyl-1-(5-(3-(4-(piperidin-1-yl)-1H-indol-2-yl)-1H-pyrazolo[3,4-b]pyridin-5-yl)pyridin-3-yl)methanamine] | 1.46 | 1.86 | 2.31 | 1.23
2 | CC(C)(C)C(=O)Nc1cncc(-c2cnc3[nH]nc(-c4cc5c(-c6cc(F)cc(CNS(C)(=O)=O)c6)cccc5[nH]4)c3c2)c1 [Compound 458, N-(5-(3-(4-(3-Fluoro-5-(methylsulfonamidomethyl)phenyl)-1H-indol-2-yl)-1H-pyrazolo[3,4-b]pyridin-5-yl)pyridin-3-yl)pivalamide] | 0.485 | 1.06 | 0.146 | 1.2
3 | CCCC(=O)Nc1cncc(-c2cnc3[nH]nc(-c4cc5c(-c6ccncc6)cccc5[nH]4)c3c2)c1 [Compound 110, N-(5-(3-(4-(Pyridin-4-yl)-1H-indol-2-yl)-1H-pyrazolo[3,4-b]pyridin-5-yl)pyridin-3-yl)butyramide] | 0.365 | 2.26 | 0.045 | 2.07
4 | Nc1cncc(-c2cnc3[nH]nc(-c4cc5c(N6CCCCC6)cccc5[nH]4)c3c2)c1 [Compound 147, 5-(3-(4-(Piperidin-1-yl)-1H-indol-2-yl)-1H-pyrazolo[3,4-b]pyridin-5-yl) pyridin-3-amine] | 0.154 | 1.05 | 0.213 | 0.62
5 | CCCCC(=O)Nc1cncc(-c2cnc3[nH]nc(-c4cc5c(-c6ccccc6F)cccc5[nH]4)c3c2)c1 [Compound 64, N-(5-(3-(4-(2-Fluorophenyl)-1H-indol-2-yl)-1H-pyrazolo[3,4-b]pyridin-5-yl)pyridin-3-yl)pentanamide] | 0.796 | 3.88 | 3.29 | 1.77
6 | Cc1ncc(-c2cnc3[nH]nc(-c4cc5ncccc5[nH]4)c3c2)n1C [Compound 997, 5-(1,2-Dimethyl-1H-imidazol-5-yl)-3-(1H-pyrrolo[3,2-b]pyridin-2-yl)-1H-pyrazolo[3,4-b]pyridine] | 1.08 | 3.95 | 9 | 0.744

The remaining compounds from weak to strong by EC50 [1], led by results:

Row | EC50 [1] [µM] | EC50 [2] [µM] | EC50 [4] [µM] | Structure (SMILES) | EC50 [3] [µM]
7 | 1.29 | 1.94 | 0.173 | CC(C)Nc1cncc(-c2cnc3[nH]nc(-c4cc5c(N6CCN(C)CC6)cccc5[nH]4)c3c2)c1 [Compound 212, N-Isopropyl-5-(3-(4-(4-methylpiperazin-1-yl)-1H-indol-2-yl)-1H-pyrazolo[3,4-b]pyridin-5-yl)pyridin-3-amine] | 1.48
8 | 1.05 | 3.44 | 1.56 | CN(C)Cc1cncc(-c2cnc3[nH]nc(-c4cc5c(-c6cccc(F)c6)cccc5[nH]4)c3c2)c1 [Compound 10, 1-(5-(3-(4-(3-Fluorophenyl)-1H-indol-2-yl)-1H-pyrazolo[3,4-b]pyridin-5-yl)pyridin-3-yl)-N,N-dimethylmethanamine] | 4.39
9 | 0.53 | 1.36 | 0.1 | O=C(Nc1cncc(-c2cnc3[nH]nc(-c4cc5ccccc5[nH]4)c3c2)c1)C1CCC1 [Compound 247, N-(5-(3-(1H-Indol-2-yl)-1H-pyrazolo[3,4-b]pyridin-5-yl)pyridin-3-yl) cyclobutanecarboxamide] | 0.067
10 | 0.484 | 1.06 | 0.541 | CS(=O)(=O)NCc1cc(F)cc(-c2cccc3[nH]c(-c4n[nH]c5ncc(-c6cncc(NC(=O)C7CC7)c6)cc45)cc23)c1 [Compound 470, N-(5-(3-(4-(3-Fluoro-5-(methylsulfonamidomethyl)phenyl)-1H-indol-2-yl)-1H-pyrazolo[3,4-b]pyridin-5-yl)pyridin-3-yl)cyclopropanecarboxamide] | 1.33
11 | 0.29 | 3.67 | 2.64 | CCC(=O)Nc1cncc(-c2cnc3[nH]nc(-c4cc5c(N6CCCCC6)cccc5[nH]4)c3c2)c1 [Compound 145, N-(5-(3-(4-(Piperidin-1-yl)-1H-indol-2-yl)-1H-pyrazolo[3,4-b]pyridin-5-yl)pyridin-3-yl)propionamide] | 1.41
